Reference: ChEMBL document CHEMBL1649364, “Synthesis and antifungal activity of some substituted phenothiazines and related compounds” (2011)
The source made the active and inactive calls. No cut-off for these calls is given here.

How the values were obtained:
[1] = test system: Meyerozyma guilliermondii; experiment: Antifungal activity against Candida guilliermondii by microdilution test; format: functional
[2] = Antifungal activity against Exophiala xenobiotica by microdilution test; format: functional
Pichia kudriavzevii [3] = experiment: Antifungal activity against Candida krusei by microdilution test; format: functional
[4] = test system: Meyerozyma guilliermondii; experiment: Antifungal activity against Candida guilliermondii by diffusion test; format: functional, organism-based
Exophiala spinifera [5] = experiment: Antifungal activity against Exophiala spinifera by diffusion test; format: functional, organism-based
[6] = Antifungal activity against Exophiala oligosperma by diffusion test; format: functional
[7] = Antifungal activity against Cladophialophora carrionii by diffusion test; format: functional
Candida parapsilosis [8] = experiment: Antifungal activity against Candida parapsilosis by diffusion test; format: functional, organism-based
Candida albicans [9] = experiment: Antifungal activity against Candida albicans by diffusion test; format: functional, organism-based
[10] = Antifungal activity against Cladophialophora carrionii by microdilution test; format: functional
[11] = Antifungal activity against Aspergillus fumigates by microdilution test; format: functional
Aspergillus terreus [12] = experiment: Antifungal activity against Aspergillus terreus by diffusion test; format: functional, organism-based
Aspergillus flavus [13] = experiment: Antifungal activity against Aspergillus flavus by microdilution test; format: functional
[14] = Antifungal activity against Exophiala xenobiotica by diffusion test; format: functional
Aspergillus terreus [15] = experiment: Antifungal activity against Aspergillus terreus by microdilution test; format: functional
Aspergillus nidulans [16] = experiment: Antifungal activity against Aspergillus nidulans by microdilution test; format: functional, organism-based
Aspergillus niger [17] = experiment: Antifungal activity against Aspergillus niger by diffusion test; format: functional, organism-based
[18] = Antifungal activity against Aspergillus fumigates by diffusion test; format: functional
Aspergillus flavus [19] = experiment: Antifungal activity against Aspergillus flavus by diffusion test; format: functional, organism-based
[20] = Antifungal activity against Exophiala oligosperma by microdilution test; format: functional
Exophiala spinifera [21] = experiment: Antifungal activity against Exophiala spinifera by microdilution test; format: functional
Pichia kudriavzevii [22] = experiment: Antifungal activity against Candida krusei by diffusion test; format: functional, organism-based
Candida parapsilosis [23] = experiment: Antifungal activity against Candida parapsilosis by microdilution test; format: functional
Cryptococcus neoformans [24] = experiment: Antifungal activity against Cryptococcus neoformans by diffusion test; format: functional, organism-based
Cryptococcus neoformans [25] = experiment: Antifungal activity against Cryptococcus neoformans by microdilution test; format: functional
Nakaseomyces glabratus [26] = experiment: Antifungal activity against Candida glabrata by microdilution test; format: functional
Aspergillus nidulans [27] = experiment: Antifungal activity against Aspergillus nidulans by diffusion test; format: functional, organism-based
Aspergillus niger [28] = experiment: Antifungal activity against Aspergillus niger by microdilution test; format: functional
Nakaseomyces glabratus [29] = experiment: Antifungal activity against Candida glabrata by diffusion test; format: functional, organism-based
Candida albicans [30] = experiment: Antifungal activity against Candida albicans by microdilution test; format: functional

| SMILES | Activity [1] | Activity [2] | Activity (Pichia kudriavzevii [3]) | Activity [10] | Activity [11] | Activity (Aspergillus flavus [13]) | Activity (Aspergillus terreus [15]) | Activity (Aspergillus nidulans [16]) | Activity [20] | Activity (Exophiala spinifera [21]) | Activity (Candida parapsilosis [23]) | Activity (Cryptococcus neoformans [25]) | Activity (Nakaseomyces glabratus [26]) | Activity (Aspergillus niger [28]) | Activity (Candida albicans [30]) | further results |
| --- | --- | --- | --- | --- | --- | --- | --- | --- | --- | --- | --- | --- | --- | --- | --- | --- |
| CN(C)S(=O)(=O)c1ccc2c(c1)Nc1ccccc1S2 | inactive | inactive | inactive | inactive | inactive | inactive | inactive | inactive | inactive | inactive | inactive | inactive | inactive | inactive | inactive | Activity [4]: Active; Activity (Exophiala spinifera [5]): Active; Activity [6]: Active; Activity [7]: Active; Activity (Candida parapsilosis [8]): Active; Activity (Candida albicans [9]): Active; Activity (Aspergillus terreus [12]): Active; Activity [14]: Active; Activity (Aspergillus niger [17]): Active; Activity [18]: Active; Activity (Aspergillus flavus [19]): Active; Activity (Pichia kudriavzevii [22]): Active; Activity (Cryptococcus neoformans [24]): Active; Activity (Aspergillus nidulans [27]): Active; Activity (Nakaseomyces glabratus [29]): Active |
| O=C(CCl)N(c1ccccc1)c1ccccc1 | inactive | inactive | inactive | inactive | inactive | inactive | inactive | inactive | inactive | inactive | inactive | inactive | inactive | inactive | inactive |  |
| O=C(CCl)n1c2ccccc2c2ccccc21 | inactive | inactive | inactive | inactive | inactive | inactive | inactive | inactive | inactive | inactive | inactive | inactive | inactive | inactive | inactive |  |
| O=C(CCl)N1c2ccccc2Oc2ccccc21 | inactive | inactive | inactive | inactive | inactive | inactive | inactive | inactive | inactive | inactive | inactive | inactive | inactive | inactive | inactive |  |
